Reference: patent publication EP2680005A1, “Lipid analysis” (Rheinische Friedrich-Wilhelms-Universität Bonn, priority 2012, dated 2014)
Read-outs that look alike come from different tables or passages of the source.

Legend:
A-172 cells = assay: Alkyne-sphinganine labeling of cultivated cells, click analysis; assay type: cell-based; details: cultivated 1 h with the compound
Protocol: (§1) Alkyne lipid precursors are supplemented to cell culture where they become incorporated into cellular lipids, e.g. into phosphatidylcholine (PC). These are extracted and reacted with the fluorogenic dye 3-azido-7-hydroxycoumarin in the presence of copper(I). […] (a) Alkyne-Bodipy at concentrations as indicated was reacted with either 60 µM 3-azido-7-hydroxycoumarin and 2mM Cu(I)BF4 (+) or incubated in ethanol for 3h at 42°C (-). The samples were separated by TLC using hexane/ethyl acetate 1/1 as the mobile phase. […] (c) Plot of the integrated fluorescence intensity of lane 6 of panel b (left) and from the corresponding one second exposure before base treatment. […] The cholesterol ester of alkyne-oleate at the indicated concentrations was subjected to detection reaction, TLC separation and fluorescence imaging using the standard protocol. […] (b) Quantification of integrated fluorescence of panel a. […] Signals were quantified either by scraping, extraction and scintillation counting (panel b, ^3H-oleate) or by integration of signals form the fluorescence image (panel b, alkyne-oleate). […] Lipids extracts were dried and subjected to detection reaction, TLC separation and fluorescence imaging using the standard protocol. […] (b) Quantification of the signals in panel a. […]

[1] = test system: Freshly isolated mouse hepatocytes; assay: Hepatocyte fatty acid metabolism, time course with alkyne or natural fatty acids; assay type: cell-based; details: 50 µM fatty acid, all labeling times; fluorescent click analysis
Protocol: as §1

[2] = test system: Drosophila melanogaster L3 larvae; assay: Alkyne fatty acid labeling of opened single L3 larvae; details: 50 µM, 30 min
Protocol: as §1

HuH7 hepatoma cells = assay: Pulse chase labeling with alkyne fatty acids; assay type: cell-based
Protocol: Alkyne lipid precursors are supplemented to cell culture where they become incorporated into cellular lipids, e.g. into phosphatidylcholine (PC). These are extracted and reacted with the fluorogenic dye 3-azido-7-hydroxycoumarin in the presence of copper(I). […] (a) Alkyne-Bodipy at concentrations as indicated was reacted with either 60 µM 3-azido-7-hydroxycoumarin and 2mM Cu(I)BF4 (+) or incubated in ethanol for 3h at 42°C (-). The samples were separated by TLC using hexane/ethyl acetate 1/1 as the mobile phase. The dried TLC plate was first imaged with excitation at 485 nm and emission at >520 nm (left panel, Bodipy channel), followed by treatment with 4% Hünig's base in hexane and imaging with excitation at 420 nm and emission at 484-504 nm (right panel, Coumarin channel). (b, c) Influence of dye concentration and base treatment. A172 cells were grown in a 15 cm dish and labeled with 100 µM alkyne-palmitate/alkyne-oleate 1/1 for 2 h. Lipids were extracted and dissolved in 2 ml CHCl3. 2 µl of this extract were reacted with 2 mM Cu(I)BF4 and the indicated concentration of 3-azido-7-hydroxycoumarin in 37 µl ethanol/MeCN/CHCl3 24/6/7 at 42°C for 3 h. Samples were separated by TLC and imaged (b) before (right panel) and after (left panel) treatment with 4%-Hünig's base in hexane for the times indicated. (c) Plot of the integrated fluorescence intensity of lane 6 of panel b (left) and from the corresponding one second exposure before base treatment. […] The cholesterol ester of alkyne-oleate at the indicated concentrations was subjected to detection reaction, TLC separation and fluorescence imaging using the standard protocol. […] (b) Quantification of integrated fluorescence of panel a. […] Signals were quantified either by scraping, extraction and scintillation counting (panel b, ^3H-oleate) or by integration of signals form the fluorescence image (panel b, alkyne-oleate). […] Lipids extracts were dried and subjected to detection reaction, TLC separation and fluorescence imaging using the standard protocol. […] (b) Quantification of the signals in panel a. […]

[3] = test system: Freshly isolated mouse hepatocytes; assay: Comparison of 3H-oleate and alkyne-oleate labeling (click/TLC fluorescence vs scintillation counting); assay type: cell-based
Protocol: as §1

C#CCCCCCCCCCCCCC[C@@H](O)[C@@H](N)CO [alkyne-sphinganine, (2S,3R)-2-Aminooctadec-17-yn-1,3-diol]
labeling of cellular lipids (A-172 cells): strong labeling of ceramide and other sphingolipids

C#CCCCCCCCCCCCCCCC(=O)O [alkyne-palmitate, 16-Heptadecynoic acid]
incorporation into TAG compared to PC [1]: equal distribution between PC and TAG | incorporation into PE [2]: much less | fate of label after chase (HuH7 hepatoma cells; 3 min pulse, 30 min chase): metabolized to the final products PC, PE, TAG and CE | distribution of label after pulse (HuH7 hepatoma cells; 3 min pulse, no chase): much of the fatty acids were found as the free substance, or in biosynthetic intermediates such as PA and DAG

C#CCCCCCCC/C=C\CCCCCCCC(=O)O [alkyne-oleate, Nonadec-9-cis-en-18-ynoic acid]
amount of label in neutral lipids [3]: 49% | incorporation into PE [2]: large amounts | fate of label after chase (HuH7 hepatoma cells): metabolized to the final products PC, PE, TAG and CE
